# Measured values published in US4618681A, “Aryl substituted 1H-4,5-dihydro-1,2,3-triazoles as anticonvulsants” (priority 1984, dated 1986).
# “Also recorded” adds a separate entry of the source. Read-outs that look alike come from different tables or passages of the source.
# Assays:
# [1] = type: in vivo; details: Phase V, mice, i.p.
# Experimental: (§1) The profile of anticonvulsant activity for each substance was established by five tests: one electrical and four chemical. The electrical test employed was the maximal electroshock seizure pattern test. […] Except for the sc Strych Test, these tests measure the ability of anticonvulsants to afford complete protection against threshold seizures induced by the subcutaneous injection of the CD97 of the convulsant agent.
# (§2) All convulsants were administered subcutaneously into a loose fold of skin on the back of the neck in a volume of 0.01 ml/g body weight in mice; Metrazol was injected in a volume of 0.02 ml/10 g body weight in rats. The convulsant drugs were administered at the previously determined time of peak anticonvulsant action of the drug under study. […] Except for strychnine, absence of a five-second episode of clonic spasms (threshold seizure) was taken as protection. In the case of strychnine, complete abolition of the hindleg tonic extension was taken as protection.
# in vivo [2] = test: in vivo; design: species or system mice
# Experimental: (§3) The profile of toxicity for each test drug was established by the following procedures: firstly, the minimal neurotoxic dose (TD50) was determined by the rotorod procedure at the time of peak neurotoxic effect. When a normal mouse is placed on a knurled rod one inch in diameter rotating at a speed of six rpm it can maintain its equilibrium for long periods of time. Neurological deficit is indicated by inability of the mouse to maintain its equilibrium for one minute in each of three trials on this rotating rod. Neurological deficit in rats is indicated by ataxia, loss of placing response and muscle tone. […] These observations also provide preliminary information essential for the subsequent determination of the HD50 and LD50. The HD50 represents the median dose at which 50% of animals lose their righting reflex.
# [3] = Phase V, mice, i.p.
# Experimental: as §1, §2
# [4] = mice; for effectiveness by the sc Pic test: Phase V, i.p.
# Experimental: as §1, §2
# [5] = Time of peak effect (TPE) over several tests in mice; details: i.p.
# Experimental: (§4) The drugs were administered either orally or intraperitoneally in a volume of 0.01 ml/g body weight in mice and 0.04 ml/10 g in rats. All tests were conducted at the previously determined time of peak drug effect.
# [6] = Subcutaneous Metrazol Seizure Threshold Test (sc Met) in mice; details: for effectiveness by the sc Met test: Phase V; for effectiveness by the sc Met test / ED50 sc Met / Time of Test / time of peak effect (TPE), sc Met: i.p.
# Experimental: (§5) All animals were allowed free access to both food (S/L Custom Lab Diet-7) and water, except when they were removed from their cages for the experimental procedure.
# as §4, §1, §2
# [7] = Phase I anticonvulsant screening (MES and scMet tests); details: for Anticonvulsant Activity Group Classification: Phase I screening, MES and scMet tests, mouse; for signs of neurological deficit: at 600 mg/kg (compound 7) and 300 mg/kg (compound 12); for anticonvulsant potency: in words
# animal or person = details: Mus musculus, sc, read-out: sc CD97 of bicuculline
# Experimental: as §1, §2
# [8] = Subcutaneous Metrazol Seizure Threshold Test (sc Met) in rats; type: in vivo, rats (male albino, Sprague Dawley); details: Rattus norvegicus, po, read-out: ED50 sc Met
# Experimental: as §4, §1, §2
# [9] = mice
# Experimental: as §5, §4, §1
# [10] = mice, i.p.
# Experimental: as §5, §4, §1, §2
# in vivo [11] = details: mice, i.p., 24 hour period
# Experimental: as §3
# [12] = Time of peak effect (TPE) over several tests in rats; details: p.o., Compound 9: toxicity, MES and sc Met tests
# Experimental: as §4
# [13] = Mus musculus, ip, read-out: ED50 sc Met
# [14] = Mus musculus, po, read-out: ED50 scMet
compound,measurement,setting,value
"O=C1NC(=O)C(c2ccccc2)(c2ccccc2)N1 [Phenytoin, phenytoin]","animals protected, sc Strych test",[1],50%
same,"Slope, regression line, HD50 (righting reflex)","in vivo [2]; mice, i.p.",14.03
same,"Time of Test / time of peak toxicity, righting reflex","in vivo [2]; mouse, in vivo, ip",12 h
same,effectiveness by the sc Bic test,[3],"ineffective against Metrazol, bicuculline, and picrotoxin"
same,effectiveness by the sc Pic test,[4],"ineffective against Metrazol, bicuculline, and picrotoxin"
same,"Time of Test / time of peak effect (TPE), Rotorod","mice, i.p.",2 h
same,TPE by all tests,[5],2 h
same,effectiveness by the sc Met test,[6]; mice,"ineffective against Metrazol, bicuculline, and picrotoxin"
same,ED50 sc Met,"[6]; mice, listed as phenytion",did not protect against subcutaneous Metrazol seizures
FC(F)(F)c1ccc(N2N=NCC2c2ccccc2Cl)cc1 (stereo not shown) [Compound 2],Anticonvulsant Activity Group Classification,[7],II (Class II compounds show anticonvulsant activity at doses greater than 100 mg/kg or show activity at 100 mg/kg which is not reinforced by similar activity at 300 mg/kg)
"Clc1cccc(N2N=NCC2c2ccncc2)c1 (stereo not shown) [Compound 12, 1-(m-chlorophenyl)-5-(4-pyridyl)-Δ^2-1,2,3-triazoline]",protection,[7]; 300 mg/kg,100%
same,Anticonvulsant Activity Group Classification,[7],II (Class II compounds show anticonvulsant activity at doses greater than 100 mg/kg or show activity at 100 mg/kg which is not reinforced by similar activity at 300 mg/kg)
same,signs of neurological deficit,[7],without any signs of neurological deficit
CN1CCc2cc3c(cc2[C@H]1[C@@H]1OC(=O)c2c1ccc1c2OCO1)OCO3 [bicuculline],ED97,animal or person,2.7 mg/kg
"c1ccc(N2N=NCC2c2ccncc2)cc1 (stereo not shown) [Compound 7, 1-(Phenyl)-5-(4-pyridyl)-Δ^2-1,2,3-triazoline]",protection,[7]; 600 mg/kg,100%
same,Anticonvulsant Activity Group Classification,[7],II (Class II compounds show anticonvulsant activity at doses greater than 100 mg/kg or show activity at 100 mg/kg which is not reinforced by similar activity at 300 mg/kg)
same,signs of neurological deficit,[7],without any signs of neurological deficit
picrotoxin,sc CD97 of picrotoxin,[4]; subcutaneous,3.15 mg/kg
"CCOC(=O)c1ccc(N2N=NCC2c2ccncc2)cc1 (stereo not shown) [Compound 8, 1-(p-Ethoxycarbonyl)-5-(4-pyridyl)-Δ^2-1,2,3-triazoline]",Anticonvulsant Activity Group Classification,[7],II (Class II compounds show anticonvulsant activity at doses greater than 100 mg/kg or show activity at 100 mg/kg which is not reinforced by similar activity at 300 mg/kg)
"FC(F)(F)c1cccc(N2N=NCC2c2ccccc2Cl)c1 (stereo not shown) [Compound 1, 1-m-trifluoromethylphenyl-5-(o-chlorophenyl)-Δ^2-1,2,3-triazoline]",Anticonvulsant Activity Group Classification,[7],II (Class II compounds show anticonvulsant activity at doses greater than 100 mg/kg or show activity at 100 mg/kg which is not reinforced by similar activity at 300 mg/kg)
"CCC1(C)CC(=O)NC1=O (stereo not shown) [Ethosuximide, ethosuximide]",ED50,"[8]; rats, p.o.",54 mg/kg
same,"animals protected, sc Strych test",[1],≤ 62%
same,"Slope, regression line, HD50 (righting reflex)","in vivo [2]; mouse, in vivo, ip",16.43
same,"Time of Test / time of peak toxicity, righting reflex","in vivo [2]; mouse, in vivo, ip",1/2
same,"Time of Test / time of peak effect (TPE), MES",[9]; i.p.,1/2
same,"Time of Test / time of peak effect (TPE), sc Met",[10],1/2
same,effectiveness by the sc Bic test,[3],had to be given in toxic doses to protect against sc Bic seizures
same,effectiveness by the sc Pic test,[4],"effective by the sc Met, sc Bic, and sc Pic tests"
same,"Time of Test / time of peak effect (TPE), Rotorod","mouse, in vivo, ip",1/2
same,TD50 (rotorod),"mouse, in vivo, po",879.21 mg/kg
same,effectiveness by the sc Met test,[6]; mice,"effective by the sc Met, sc Bic, and sc Pic tests"
same,ED50 sc Met,[6]; mice,130.35 mg/kg
same,ED50 scMet,"[6]; mice, p.o.",192.71 mg/kg
"Clc1ccc(N2N=NCC2c2ccccn2)cc1 (stereo not shown) [Compound 14, 1-(p-Chlorophenyl)-5-(2-pyridyl)-Δ^2-1,2,3-triazoline]",Anticonvulsant Activity Group Classification,[7],II (Class II compounds show anticonvulsant activity at doses greater than 100 mg/kg or show activity at 100 mg/kg which is not reinforced by similar activity at 300 mg/kg)
"O=[N+]([O-])c1ccccc1C1CN=NN1c1cccc(Cl)c1 (stereo not shown) [Compound 4, 1-(m-Chlorophenyl)5-(o-nitrophenyl)-Δ^2-1,2,3-triazoline]",Anticonvulsant Activity Group Classification,[7],II (Class II compounds show anticonvulsant activity at doses greater than 100 mg/kg or show activity at 100 mg/kg which is not reinforced by similar activity at 300 mg/kg)
"FC(F)(F)c1cccc(N2N=NCC2c2ccncc2)c1 (stereo not shown) [Compound 17, 1-(m-trifluoromethylphenyl)-5-(4-pyridyl)-Δ^2-1,2,3-triazoline]",anticonvulsant potency,[7],most potent
"Cc1ccc(N2N=NCC2c2ccncc2)cc1 (stereo not shown) [Compound 11, 1-(p-Methylphenyl)-5-(4-pyridyl)-Δ^2-1,2,3-triazoline]",Anticonvulsant Activity Group Classification,[7],II (Class II compounds show anticonvulsant activity at doses greater than 100 mg/kg or show activity at 100 mg/kg which is not reinforced by similar activity at 300 mg/kg)
"c1ccc(N2N=NCC2c2ccccn2)cc1 (stereo not shown) [Compound 13, 1-(phenyl)-5-(2-pyridyl)-Δ^2-1,2,3-triazoline]",Anticonvulsant Activity Group Classification,[7],II (Class II compounds show anticonvulsant activity at doses greater than 100 mg/kg or show activity at 100 mg/kg which is not reinforced by similar activity at 300 mg/kg)
"O=[N+]([O-])c1cccc(N2N=NCC2c2ccc3ccccc3n2)c1 (stereo not shown) [Compound 15, 1-(m-Nitrophenyl)-5-(2-quinolyl)-Δ^2-1,2,3-triazoline]",Anticonvulsant Activity Group Classification,[7],II (Class II compounds show anticonvulsant activity at doses greater than 100 mg/kg or show activity at 100 mg/kg which is not reinforced by similar activity at 300 mg/kg)
"Clc1cccc(Cl)c1C1CN=NN1c1ccc(Br)cc1 (stereo not shown) [Compound 6, 1-(p-Bromophenyl)-5-(2,6-dichlorophenyl)-Δ^2-1,2,3-triazoline]",Anticonvulsant Activity Group Classification,[7],II (Class II compounds show anticonvulsant activity at doses greater than 100 mg/kg or show activity at 100 mg/kg which is not reinforced by similar activity at 300 mg/kg)
"Fc1ccc(N2N=NCC2c2ccncc2)cc1 (stereo not shown) [Compound 10, 1-(p-Fluorophenyl)-5-(4-pyridyl)Δ^2-1,2,3-triazoline]",anticonvulsant potency,[7],most potent
"CCCC(CCC)C(=O)O [Valproate, valproate]",ED50,"[8]; rats, p.o.",180 mg/kg
same,HD50 (righting reflex),"in vivo [2]; mice, i.p.",885.53 mg/kg
same,"Slope, regression line, HD50 (righting reflex)","in vivo [2]; mice, i.p.",12.46
same,"Time of Test / time of peak toxicity, righting reflex","in vivo [2]; mice, i.p.",1/4
same,LD50 (lethality),in vivo [11],1104.62 mg/kg
same,"Time of Test / time of peak effect (TPE), MES",[9]; i.p.,1/4
same,ED50,[6]; [13],149 mg/kg
same,ED50,[6]; [14],388 mg/kg
same,"Time of Test / time of peak effect (TPE), sc Met",[6]; mice,1/4
"Fc1ccc(N2N=NCC2c2cccnc2)cc1Cl (stereo not shown) [Compound 18, 1-(m-chloro-p-fluorophenyl)-5-(3-pyridyl)-Δ ^2-1,2,3-triazoline]",Anticonvulsant Activity Group Classification,[7],II (Class II compounds show anticonvulsant activity at doses greater than 100 mg/kg or show activity at 100 mg/kg which is not reinforced by similar activity at 300 mg/kg)
"O=[N+]([O-])c1cccc(N2N=NCC2c2ccc(Cl)cc2Cl)c1 (stereo not shown) [Compound 5, 1-(m-Nitrophenyl)-5-(2,4-dichlorophenyl)-Δ^2-1,2,3-triazoline]",Anticonvulsant Activity Group Classification,[7],II (Class II compounds show anticonvulsant activity at doses greater than 100 mg/kg or show activity at 100 mg/kg which is not reinforced by similar activity at 300 mg/kg)
"CCc1ccc(N2N=NCC2c2ccccc2Cl)cc1 (stereo not shown) [Compound 3, 1-(p-Ethylphenyl)-5-(o-chlorophenyl)-Δ^2-1,2,3-triazoline]",Anticonvulsant Activity Group Classification,[7],II (Class II compounds show anticonvulsant activity at doses greater than 100 mg/kg or show activity at 100 mg/kg which is not reinforced by similar activity at 300 mg/kg)
"FC(F)(F)c1ccc(N2N=NCC2c2ccncc2)cc1 (stereo not shown) [Compound 16, 1-(p-trifluoromethylphenyl)-5-(4-pyridyl)-Δ^2-1,2,3-triazoline]",anticonvulsant potency,[7],most potent
"CCC1(c2ccccc2)C(=O)NC(=O)NC1=O [Phenobarbital, phenobarbital]",ED50,[8],11.6 mg/kg
same,effectiveness by the sc Strych test,[1],had to be given in toxic doses in order to protect; also recorded: effective in toxic doses
same,"Slope, regression line, HD50 (righting reflex)","in vivo [2]; mice, i.p.",8.41
same,ED50 MES,[9]; i.p.,21.78 mg/kg
same,"Time of Test / time of peak effect (TPE), MES",[9]; i.p.,1 h
same,ED50 MES,[9]; p.o.,20.09 mg/kg
same,effectiveness by the sc Bic test,[3],"effective against sc Met, sc Bic, and sc Pic in nontoxic doses"
same,effectiveness by the sc Pic test,[4],"effective against sc Met, sc Bic, and sc Pic in nontoxic doses"
same,TPE,[12],five
same,ED50,[6]; [13],13.2 mg/kg
same,ED50,[6]; [14],12.6 mg/kg
same,"Time of Test / time of peak effect (TPE), sc Met",[6]; mice,1 h
"C1CCc2nnnn2CC1 [Metrazol, pentylenetetrazole]",ED97,"[6]; Mus musculus, sc, read-out: sc CD97 of Metrazol",85 mg/kg
